In brackets after ≈: the same amount, converted by molar mass.
Each compound was assayed on Staphylococcus aureus Smith (assay: MIC assay, modified agar dilution (CLSI), S. aureus Smith). Details: Staphylococcus aureus, agar dilution, 35° C., 16-20 hr; lowest concentration that completely inhibited growth; read-out: S_aureus_Smith_WT_MIC.
Type: cell-based
Protocol: The potency of antibacterial agents was measured using the Minimal Inhibitory Concentration (MIC) assay. The assay measures the ability of test agents to inhibit the growth of bacteria on agar-containing medium.
The bacterial test strains used were exemplified by Staphylococcus aureus Smith, Enterococcus faecium A2373, Streptococcus pneumoniae IID554, and Escherichia coli ATCC 25922. All strains were maintained as frozen stocks held at −80° C. in skim milk. Other bacterial test strains are well known to those skilled in the art and can be used for testing.
Mueller Hinton Agar (MHA BBL; Becton Dickinson and Company, Sparks, Md.) was used as the medium. MHA was supplemented with 5% defibrinated horse blood (DHB; Nippon Biotest Laboratories inc.) to support the growth of S. pneumoniae and E. faecium.
MIC values were determined using a modified agar dilution procedure described by the Clinical and Laboratory Standards Institute (CLSI; Methods for Dilution Antimicrobial Susceptibility Tests for Bacteria That Grow Aerobically; Approved Standard—Eighth Edition. CLSI document M07-A8 [ISBN 1-56238-689-1]. Clinical and Laboratory Standards Institute, 940 West Valley Road, Suite 1400, Wayne, Pa. 19087-1898 USA, 2009).
Stock solutions (6.4 mgmL) of test compounds were prepared in 100% ultrapure dimethyl sulfoxide (DMSO; source) on the day of the assay. Subsequent serial dilutions were performed to generate solutions with concentrations ranging from 6.4 to 0.0002 mgmL in 100% DMSO.
Agar medium containing test compound was prepared by adding the dilutions of antimicrobial solution to molten MHA at a temperature of 45-50° C. The agar and antimicrobial solution were mixed thoroughly, poured into petri dishes, and allowed to solidify at room temperature. The final concentration of test compounds in the MHA medium ranged from 128 to 0.001 μg/mL with two-fold dilutions. MHA plates lacking antibacterial compound were used for growth controls.
Prior to susceptibility testing, the bacterial isolates were removed from frozen storage, thawed at room temperature, sub-cultured to MHA medium and incubated overnight at 35° C. S. pneumoniae and E. faecium were subcultured on MHA supplemented with 5% DHB at 35° C. with […]. Colonies from each plate were suspended in normal saline. This suspension was adjusted to the turbidity of a 0.5 McFarland standard, 1-2×10^8 colony forming units (CFU) per mL, and diluted 100-fold to 1-2×10^6 CFUmL.
Suspensions of bacterial cultures were applied to the surface of MHA plates containing test compound as well as to a growth control plate lacking test compound using an inoculum-replicating device with 4 mm pins. The replicating device applied 5 uL of the bacterial suspension such that each spot contained approx. 1×10^4 CFU. Plates were dried for about 40 min and incubated at 35° C. for 16-20 hr prior to scoring.
Work on `COc1ccc2ncc(F)c(CCC34CCC(NCc5ccc6c(n5)OCCO6)(CC3)CO4)c2n1` [Example 146, N-((2,3-Dihydro-[1,4]dioxino[2,3-b]pyridin-6-yl)methyl)-1-(2-(3-fluoro-6-methoxy-1,5-naphthyridin-4-yl)ethyl)-2-oxabicyclo[2.2.2]octan-4-amine] yielded an MIC of 0.125 µg/mL (≈ 0.26 µM).
In the case of `COc1ccc2ncc(F)c(CCC34CCC(NCc5cc6c(nn5)OCC(=O)N6)(CC3)CO4)c2n1` [Example 177, 3-[({1-[2-(3-Fluoro-6-methoxy-1,5-naphthyridin-4-yl)ethyl]-2-oxabicyclo[2.2.2]oct-4-yl}amino)methyl]-5H-pyridazino [3,4-b][1,4]oxazin-6(7H)-one], the MIC is reported as 1 µg/mL (≈ 2.02 µM).
`N#Cc1cnc2ccc(=O)n(CC(O)C34CCC(NCc5cc6c(cn5)OCCO6)(CC3)CO4)c2c1` (single isomer, unassigned; enantiomer a) [Example 159, 5-(2-(4-((2,3-Dihydro-[1,4]dioxino[2,3-c]pyridin-7-yl)methylamino)-2-oxabicyclo[2.2.2]octan-1-yl)-2-hydroxyethyl)-6-oxo-5,6-dihydro-1,5-naphthyridine-3-carbonitrile (Enantiomer A)] was tested, and the MIC was 2 µg/mL (≈ 4.09 µM).
In the case of `COC(=O)C1CC1COc1ccc2ncc(F)c(CCC34CCC(NCc5ccc6c(n5)NC(=O)CO6)(CC3)CO4)c2n1` (single isomer, unassigned; enantiomer a) [Example 227, Methyl 247-Fluoro-8-(2-(4-((3-oxo-3,4-dihydro-2H-pyrido[3,2-b][1,4]oxazin-6-yl)methylamino)-2-oxabicyclo[2.2.2]octan-1-yl)ethyl)-1,5-naphthyridin-2-yloxy)methyl)cyclopropanecarboxylate (Enantiomer A)], the MIC is reported as 0.063 µg/mL (≈ 0.106 µM).
Compound `COc1ccc2ncc(F)c(CCC34CCC(NCc5cc6c(cc5F)OCO6)(CC3)CO4)c2n1.Cl` [Example 87, 1-(2-(3-Fluoro-6-methoxy-1,5-naphthyridin-4-yl)ethyl)-N-((6-fluorobenzo[d][1,3]dioxol-5-yl)methyl)-2-oxabicyclo[2.2.2]octan-4-amine Hydrochloride] has an MIC of 0.063 µg/mL.
For `O=C1COc2ccc(CNC34CCC(CCc5c(F)cnc6ccc(OC[C@H]7C[C@@H](O)[C@@H](O)C7)nc56)(CC3)OC4)nc2N1` [Example 169, 6-((1-(2-(6-(((1r,3R,4S)-3,4-Dihydroxycyclopentyl)methoxy)-3-fluoro-1,5-naphthyridin-4-yl)ethyl)-2-oxabicyclo[2.2.2]octan-4-ylamino)methyl)-2H-pyrido[3,2-b][1,4]oxazin-3(4H)-one], the MIC was 0.063 µg/mL (≈ 0.106 µM).
In the case of `COc1ccc2ncc(F)c(CCC34CCC(NCc5cn(-c6ncccn6)cn5)(CC3)CO4)c2n1` [Example 76, 1-(2-(3-Fluoro-6-methoxy-1,5-naphthyridin-4-yl)ethyl)-N-((1-(pyrimidin-2-yl)-1H-imidazol-4-yl)methyl)-2-oxabicyclo[2.2.2]octan-4-amine], the MIC is reported as 0.125 µg/mL (≈ 0.255 µM).
`COc1ccc2ncc(F)c(CCC34CCC(N(C)Cc5ccc6c(n5)NC(=O)CO6)(CC3)CO4)c2n1` [Example 176, 6-{[{1-[2-(3-Fluoro-6-methoxy-1,5-naphthyridin-4-yl)ethyl]-2-oxabicyclo[2.2.2]oct-4-yl}(methyl)amino]methyl}-2H-pyrido[3,2-b][1,4]oxazin-3(4H)-one] gave an MIC of 0.125 µg/mL (≈ 0.246 µM).
For `Cc1ccc2ncc(=O)n(CCC34CCC(NCc5ccc6c(n5)NC(=O)CO6)(CC3)CO4)c2n1` [Example 126, 6-(((1-(2-(6-Methyl-3-oxopyrido[2,3-b]pyrazin-4(3H)-yl)ethyl)-2-oxabicyclo[2.2.2]octan-4-yl)amino)methyl)-2H-pyrido[3,2-b][1,4]oxazin-3(4H)-one], the MIC was 0.25 µg/mL (≈ 0.525 µM).
With `Cc1cccc2sc(C(=O)C34CCC(NCc5ccc6c(n5)NC(=O)CO6)(CC3)CC4)nc12` [Example 11, 6-((4-(4-Methylbenzo[d]thiazole-2-carbonyl)bicyclo[2.2.2]octan-1-ylamino)methyl)-2H-pyrido[3,2-b][1,4]oxazin-3(4H)-one] the MIC was 2 µg/mL (≈ 4.32 µM).
`COc1ccc2ncc(F)c(CCC34CCC(NCc5cc6c(Cl)cccc6n(C)c5=O)(CC3)CO4)c2n1` [Example 106, 5-Chloro-3-((1-(2-(3-fluoro-6-methoxy-1,5-naphthyridin-4-yl)ethyl)-2-oxabicyclo[2.2.2]octan-4-ylamino)methyl)-1-methylquinolin-2(1H)-one] was tested, and the MIC was 1 µg/mL (≈ 1.86 µM).
`COc1ccc2ncc(F)c(C(CC34CCC(NCc5ccc6c(n5)NC(=O)CO6)(CC3)CO4)C(=O)[O-])c2n1.[Na+]` (stereo not shown) [Example 195, Sodium 2-(3-fluoro-6-methoxy-1,5-naphthyridin-4-yl)-3-(4-(((3-oxo-3,4-dihydro-2H-pyrido[3,2-b][1,4]oxazin-6-yl)methyl)amino)-2-oxabicyclo[2.2.2]octan-1-yl)propanoate] was tested, and the MIC was 1 µg/mL.
Work on `Cl.O=C1COc2ccc(CNC34CCC(CCc5c(F)cnc6ccc(OCCO)nc56)(CC3)OC4)nc2N1` [Example 34, 6-((1-(2-(3-Fluoro-6-(2-hydroxyethoxy)-1,5-naphthyridin-4-yl)ethyl)-2-oxabicyclo[2.2.2]octan-4-ylamino)methyl)-2H-pyrido[3,2-b][1,4]oxazin-3(4H)-one Hydrochloride] yielded an MIC of 0.031 µg/mL.
`COc1ccc2ncc(F)c(CCC34CCC(NCc5cc6[nH]c(=O)cnc6cn5)(CC3)CO4)c2n1` [Example 179, 7-[({1-[2-(3-Fluoro-6-methoxy-1,5-naphthyridin-4-yl)ethyl]-2-oxabicyclo[2.2.2]oct-4-yl}amino)methyl]pyrido[3,4-b]pyrazin-2(1H)-one] gave an MIC of 0.5 µg/mL (≈ 1.02 µM).
`COc1ccc2ncc(F)c(CCC34CCC(NCc5ccc(C)c(F)c5)(CC3)CO4)c2n1` [Example 59, N-(3-Fluoro-4-methylbenzyl)-1-(2-(3-fluoro-6-methoxy-1,5-naphthyridin-4-yl)ethyl)-2-oxabicyclo[2.2.2]octan-4-amine] gave an MIC of 0.016 µg/mL (≈ 0.0353 µM).
Compound `O=C1COc2ccc(CNC34CCC(CCN5C(=O)N6CCCN=C6c6ccccc65)(CC3)OC4)nc2N1` [Example 118, 6-(((1-(2-(6-Oxo-3,4-dihydro-2H-pyrimido[1,2-c]quinazolin-7(6H)-yl)ethyl)-2-oxabicyclo[2.2.2]octan-4-yl)amino)methyl)-2H-pyrido[3,2-b][1,4]oxazin-3(4H)-one] has an MIC of 32 µg/mL (≈ 61.9 µM).

Same assay, conditions: agar dilution, 35° C., 16-20 hr; lowest concentration that completely inhibited growth
Work on `COc1ccc2ncc(F)c(C(C)C(O)C34CCC(NCc5ccc6c(n5)NC(=O)CO6)(CC3)CO4)c2n1` (single isomer, unassigned) [Example 151b, 6-((1-(2-(3-Fluoro-6-methoxy-1,5-naphthyridin-4-yl)-1-hydroxypropyl)-2-oxabicyclo[2.2.2]octan-4-ylamino)methyl)-2H-pyrido[3,2-b][1,4]oxazin-3(4H)-one] yielded a S_aureus_Smith_WT_MIC of 4.00 µg/mL.

Same assay, conditions: agar dilution, 35° C., 16-20 hr; lowest concentration that completely inhibited growth; Hydrochloride
In the case of `COc1ccc2ncc(=O)n(CC(O)C34CCC(NCc5ccc6c(n5)NC(=O)CO6)(CC3)CO4)c2n1.Cl` (single isomer, unassigned) [Example 51a, 6-(((1-(1-Hydroxy-2-(6-methoxy-3-oxopyrido[2,3-b]pyrazin-4(3H)-yl)ethyl)-2-oxabicyclo[2.2.2]octan-4-yl)amino)methyl)-2H-pyrido[3,2-b][1,4]oxazin-3(4H)-one Hydrochloride], the S_aureus_Smith_WT_MIC is reported as 0.0310 µg/mL.
In the case of `COc1ccc2ncc(=O)n(CC(O)C34CCC(NCc5ccc6c(n5)NC(=O)CO6)(CC3)CO4)c2n1.Cl` (single isomer, unassigned) [Example 51b, 6-(((1-(1-hydroxy-2-(6-methoxy-3-oxopyrido[2,3-b]pyrazin-4(3H)-yl)ethyl)-2-oxabicyclo[2.2.2]octan-4-yl)amino)methyl)-2H-pyrido[3,2-b][1,4]oxazin-3(4H)-one hydrochloride], the S_aureus_Smith_WT_MIC is reported as 0.0630 µg/mL.

From patent publication US20140243302A1, “BRIDGED BICYCLIC COMPOUNDS FOR THE TREATMENT OF BACTERIAL INFECTIONS” (priority 2011, published 2014)
